The values below come from the NIST ThermoML archive (doi:10.1016/j.jct.2016.06.020).

± gives the expanded uncertainty stated by the source.

For data set [1] the following is noted: Crystal; DTA.
The nature of data set [2]: Molar enthalpy of transition or fusion. The following applies: Crystal; DSC.

Turning to `CCN1C(=O)N(C)[C@@H]2[C@H]1N(C)C(=O)N2CC` (racemic), in data set [1], the Normal melting temperature was 118.6 ± 0.6 °C. The “Molar enthalpy of transition or fusion” value in data set [2] was found to be 4.97 ± 0.167 kcal/mol.
